# Patent US9603896B2, “Peptide compounds and methods of production and use thereof” (priority 2012, dated 2017)
# Where two headings read alike, the source gives them in different places. Square brackets hold non-standard residues; d marks the D form. Ends that are not written are not given here. Peptide text beside a SMILES is read from it. AEEA = NCCOCCOCC(=O)O
# What was measured:
# in vivo = conditions: rat, iv, 20 mg/kg
# Description: The purpose of this example was to assess the pharmacokinetics, distribution, and excretion of ^14C-BCC03-5RMP (SEQ ID NO:23) following a single intravenous administration to male rats. Pharmacokinetic, excretion, and distribution profiles of ^14C-BCC03-5RMP-derived radioactivity were examined in male Sprague Dawley rats following a single intravenous administration of ^14C-BCC03-5RMP (20 mg/kg; 125 μCi/kg). ^14C-BCC03-5RMP was formulated in 5% (v:v) dextrose in water, pH 5.5 and was administered at a dose volume of 5 mL/kg. For assessment of pharmacokinetics of total radioactivity (Group 1), blood was collected at 0.25, 0.5, 1, 2, 4, 8, 24, 48, and 72 hours postdose. For assessment of excretion profiles, urine was collected from 0-8 and 8-24 hours postdose, and at 24-hour intervals through 168 hours postdose. Feces was collected at 24-hour intervals through 168 hours postdose. For assessment of distribution profiles, one animal/time point was sacrificed at 0.25, 1, 4, 24, and 72 hours postdose, and the carcasses were prepared for quantitative whole-body autoradiography (QWBA). Concentrations of radioactivity in whole blood, plasma, urine, feces (after oxidation), cage rinse, cage wash, and carcass were determined by liquid scintillation counting (LSC). Tissue concentrations were calculated by interpolation from each standard curve using MCID™ analysis software (InterFocus Imaging Ltd Corp., UK). Pharmacokinetic parameters for total radioactivity in blood and plasma were calculated using WinNonlin Professional Edition (version 5.2, Pharsight Corporation, St. Louis, Mo.).
# [1] = test system: Pseudomonas aeruginosa ATCC® 27853™; format: cell-based; conditions: for Effects of Peptide Compounds on Pseudomonas aeruginosa ATCC ® 27853 ™: Table 6, 5 × 10^3 CFU/ml unless italicized = 1 × 10^5 CFU/ml
# Description: (§1) The three peptide compounds BCC01-5RMP (SEQ ID NO:21), BCC02-5RMP (SEQ ID NO:22), and BCC03-5RMP (SEQ ID NO:23) were assayed for in vitro bactericidal activity against Pseudomonas aeruginosa, Escherichia coli, Salmonella typhimurium, and Acinetobacter baumannii. […] The CFU remaining at the end of 60 to 180 minute incubation was determined, and the data plotted as a log reduction in CFU/ml.
# (§2) Tables 4-6 show the results of various peptides and peptide compounds against P. aeruginosa and E. coli strains. Tables 4 and 5 show the results of an investigation of the effects of peptide or peptide compounds BCC03-5RMP (SEQ ID NO:23), BCC03-MP (SEQ ID NO:24) and BCC03-5R (SEQ ID NO:20) against P. aeruginosa ATCC® strain 27853™ and E. coli ATCC® strain 25922™ (American Type Culture Collection, Manassas, Va.). […] Table 6 compares the activity of several other compounds, including the “5R” versions of BCC01, i.e., SEQ ID NO:18 (which comprises SEQ ID NO:1 with five additional arginines), the “5R” version of BCC02 (i.e., SEQ ID NO:19, which comprises SEQ ID NO:2 with five additional arginines), and BCC03-5RMP (SEQ ID NO:23), and BCC03-MP (SEQ ID NO:24, i.e., without the five additional R residues). The data generally indicate the superiority of BCC03-5RMP (SEQ ID NO:23) against E. coli, and the superiority of the 5R or 5RMP versions of the peptide over the “AEEA only” peptide against P. aeruginosa.
# (§3) For FIGS. 10-13, in vitro bactericidal assays were performed using a starting inoculum of 1×10^6 CFU/ml of the bacterial suspension. The CFU remaining at the end of the 60-180 minute incubation was determined, and the data was plotted as log reduction in CFU/ml.
# (§4) In particular, each of the test peptides (CAP37 peptides 120-146WR, 120-146WH, and 95-122 (SEQ ID NOs: 30, 31, and 26, respectively)) was used at 25, 12.5, 6.25, and 3.12 μM. Gentamicin was used at 4 μg/ml. 1×10^6/ml Acinetobacter baumannii ATCC® BAA-747″ or Pseudomonas aeruginosa ATCC® 27853™ (American Type Culture Collection, Manassas, Va.) were incubated with the peptides, negative buffer control (tryptone saline), and positive control gentamicin at pH 5.5 or 7.2. A 60 minute incubation was used for Acinetobacter baumannii ATCC® BAA747™, while a 180 minute incubation was used for Pseudomonas aeruginosa ATCC® 27853™. 50 μl aliquots were plated out on agar plates and incubated overnight. Colony forming units were counted after overnight incubation and CFU/ml calculated.
# For FIG. 14, 1×10^6/ml Pseudomonas aeruginosa ATCC® 27853™ were incubated with each of the test peptides (CAP37 peptides 120-146WR, 120-146WH, 120-146QR, 120-146QH, 120-146QR-5RMP, and 120-146QH-5RMP (SEQ ID NOs: 30, 31, 28, 29, 32, and 33, respectively)) at 150, 75, and 37.5 μg/ml, or negative buffer control (tryptone saline), for 180 minutes at pH 5.5. 50 μl aliquots were plated out on agar plates and incubated overnight. Colony forming units were counted after overnight incubation and CFU/ml calculated.
# [2] = test system: E. coli ATCC® strain 25922™; format: cell-based, Escherichia coli; set-up: Effects of Peptide Compounds on Escherichia coli ATCC ® 25922 ™: unit not given here; conditions: Table 6, 5 × 10^3 CFU/ml unless italicized = 1 × 10^5 CFU/ml
# Description: as §1, §2
# [3] = test system: Acinetobacter baumannii ATCC® BAA-747™; experiment: In vitro bactericidal assay (CFU remaining, log reduction); format: cell-based; conditions: 60 minutes, peptides up to 25 μM, gentamicin 4 μg/ml
# Description: The three peptide compounds BCC01-5RMP (SEQ ID NO:21), BCC02-5RMP (SEQ ID NO:22), and BCC03-5RMP (SEQ ID NO:23) were assayed for in vitro bactericidal activity against Pseudomonas aeruginosa, Escherichia coli, Salmonella typhimurium, and Acinetobacter baumannii. The starting inoculum for all experiments was 1×10^6 colony forming units (CFU)/ml. The CFU remaining at the end of 60 to 180 minute incubation was determined, and the data plotted as a log reduction in CFU/ml.
# as §3, §4
compound,measurement,setting,value
CC[C@H](C)[C@H](NC(=O)[C@H](CC(C)C)NC(=O)[C@H](C)NC(=O)CNC(=O)CNC(=O)[C@H](CS)NC(=O)[C@H](Cc1ccccc1)NC(=O)[C@H](Cc1c[nH]cn1)NC(=O)[C@H](CCCNC(=N)N)NC(=O)CNC(=O)[C@H](CCC(N)=O)NC(=O)[C@H](CC(N)=O)NC(=O)[C@H](CCCNC(=N)N)NC(=O)[C@H](CCCNC(=N)N)NC(=O)[C@H](CCCNC(=N)N)NC(=O)[C@H](CCCNC(=N)N)NC(=O)COCCOCCNC(=O)COCCOCCN)C(=O)N[C@@H](Cc1c[nH]cn1)C(=O)N[C@@H](C)C(=O)N[C@@H](CCCNC(=N)N)C(=O)N[C@@H](Cc1ccccc1)C(=O)N[C@H](C(=O)N[C@@H](CCSC)C(=O)N[C@H](C(=O)N[C@@H](C)C(=O)N[C@@H](C)C(=O)N[C@@H](CO)C(=O)N[C@@H](CO)C(=O)N[C@@H](Cc1ccccc1)C(=O)N[C@@H](CCC(N)=O)C(=O)N[C@@H](CCCNC(=N)N)C(=O)O)[C@@H](C)O)C(C)C [^14C-BCC03-5RMP] (H-[AEEA][AEEA]RRRRNQGRHFCGGALIHARFVMTAASSFQR-OH; N-terminus and C-terminus assumed),blood plasma ratio,"in vivo; male, Sprague Dawley, total radioactivity",0.689 to 3.11
same,"C0, Radio-equivalents in blood",in vivo,38500 ± 2160 ng eq/g
same,"C0, Radio-equivalents in plasma",in vivo,51800 ± 4160 ng eq/g
same,"Clearance of radioactivity, plasma relative to blood",in vivo,approximately 2 fold
same,blood:brain barrier passage of radioactivity,in vivo,crossed the blood:brain barrier
same,blood:testis barrier passage of radioactivity,in vivo,crossed the blood:testis barrier
same,"exposure (AUC0-∞), blood relative to plasma",in vivo,approximately 2 fold
same,"tissue:plasma concentration ratios, majority of tissues",in vivo,greater than one
same,"tissue:plasma concentration ratios, renal, adrenal, pancreatic, and pituitary tissues",in vivo,up to 103
same,"volume of distribution of total radioactivity, blood relative to plasma",in vivo,approximately 1.6 fold
RRRRNQGRHFCGGALIHARFVMTAASCFQR (5-arginine peptide derivative of CAP37 peptide) [SEQ ID NO: 18 (Linear)],Effects of Peptide Compounds on Pseudomonas aeruginosa ATCC ® 27853 ™,[1]; 0.137 μg/ml,25.4
same,Effects of Peptide Compounds on Pseudomonas aeruginosa ATCC ® 27853 ™,[1]; 0.5475 μg/ml,63.2
same,Effects of Peptide Compounds on Pseudomonas aeruginosa ATCC ® 27853 ™,[1]; 2.19 μg/ml,87.9
same,Effects of Peptide Compounds on Pseudomonas aeruginosa ATCC ® 27853 ™,[1]; 8.76 μg/ml,99.5
same,Effects of Peptide Compounds on Pseudomonas aeruginosa ATCC ® 27853 ™,[1]; 87.6 μg/ml,100.0
same,Effects of Peptide Compounds on Escherichia coli ATCC ® 25922 ™,[2]; 43.8 μg/ml,93.9
same,Effects of Peptide Compounds on Escherichia coli ATCC ® 25922 ™,[2]; 87.6 μg/ml,95.3
same,Effects of Peptide Compounds on Escherichia coli ATCC ® 25922 ™,[2]; 175.2 μg/ml,97.1
same,Effects of Peptide Compounds on Escherichia coli ATCC ® 25922 ™,[2]; 262.8 μg/ml,100.0
RRRRNQGRHFCGGALIHARFVMTAASCFQR (also: cyclized) [SEQ ID NO: 18 (Cyclized)],Effects of Peptide Compounds on Pseudomonas aeruginosa ATCC ® 27853 ™,[1]; 0.78 μg/ml,99.6
same,Effects of Peptide Compounds on Pseudomonas aeruginosa ATCC ® 27853 ™,[1]; 1.56 μg/ml,98.4
same,Effects of Peptide Compounds on Pseudomonas aeruginosa ATCC ® 27853 ™,[1]; 3.125 μg/ml,100.0
same,Effects of Peptide Compounds on Pseudomonas aeruginosa ATCC ® 27853 ™,[1]; 6.25 μg/ml,100.0
same,Effects of Peptide Compounds on Pseudomonas aeruginosa ATCC ® 27853 ™,[1]; 12.5 μg/ml,100.0
same,Effects of Peptide Compounds on Pseudomonas aeruginosa ATCC ® 27853 ™,[1]; 25 μg/ml,100.0
same,Effects of Peptide Compounds on Pseudomonas aeruginosa ATCC ® 27853 ™,[1]; 50 μg/ml,100.0
same,Effects of Peptide Compounds on Pseudomonas aeruginosa ATCC ® 27853 ™,[1]; 100 μg/ml,100.0
same,Effects of Peptide Compounds on Pseudomonas aeruginosa ATCC ® 27853 ™,[1]; 200 μg/ml,100.0
same,Effects of Peptide Compounds on Pseudomonas aeruginosa ATCC ® 27853 ™,[1]; 400 μg/ml,100.0
same,Effects of Peptide Compounds on Escherichia coli ATCC ® 25922 ™,[2]; 12.5 μg/ml,37.9
same,Effects of Peptide Compounds on Escherichia coli ATCC ® 25922 ™,[2]; 25 μg/ml,38.0
same,Effects of Peptide Compounds on Escherichia coli ATCC ® 25922 ™,[2]; 50 μg/ml,49.3
same,Effects of Peptide Compounds on Escherichia coli ATCC ® 25922 ™,[2]; 100 μg/ml,52.6
same,Effects of Peptide Compounds on Escherichia coli ATCC ® 25922 ™,[2]; 200 μg/ml,59.6
same,Effects of Peptide Compounds on Escherichia coli ATCC ® 25922 ™,[2]; 400 μg/ml,82.0
gentamicin [reference compound],activity against P. aeruginosa,"[1]; 120-146WR at 25 μM, gentamicin 4 μg/ml",highly active
same,reduction of CFU/ml,"[1]; pH 5.5, 180 minutes, highest concentrations of peptides (25 μM), gentamicin 4 μg/ml",2 logs
same,bactericidal activity against Acinetobacter baumannii,[3]; pH 5.5,unable to kill the bacteria
same,bactericidal activity against Acinetobacter baumannii,[3]; pH 7.2,active against the bacteria
